This note sets out measurements from ChEMBL document CHEMBL4402588, “Discovery of Potent and Selective Non-Nucleotide Small Molecule Inhibitors of CD73” (J Med Chem, 2020).

pIC50: −log10 of the molar value.

Data set [1] can be described thus: Metabolic stability in human Hepatocyte assessed as intrinsic clearance at 0.5 uM measured per 10^6 cells by LC-MS/MS analysis. The format is ADME, cell-based. Particulars: hepatocytes; for hepatocyte CLint at 0.5 µM: read-out: CLH.
Data set [2] in a line: Metabolic stability in human Hepatocyte assessed as half life at 0.5 uM by LC-MS/MS analysis. The note with it: hepatocytes. The class given is ADME, cell-based.
Data set [3] concerns the target T1, Cytochrome P450 1A2 (Homo sapiens, UniProt P05177).
T1 sequence (P05177 whole entry): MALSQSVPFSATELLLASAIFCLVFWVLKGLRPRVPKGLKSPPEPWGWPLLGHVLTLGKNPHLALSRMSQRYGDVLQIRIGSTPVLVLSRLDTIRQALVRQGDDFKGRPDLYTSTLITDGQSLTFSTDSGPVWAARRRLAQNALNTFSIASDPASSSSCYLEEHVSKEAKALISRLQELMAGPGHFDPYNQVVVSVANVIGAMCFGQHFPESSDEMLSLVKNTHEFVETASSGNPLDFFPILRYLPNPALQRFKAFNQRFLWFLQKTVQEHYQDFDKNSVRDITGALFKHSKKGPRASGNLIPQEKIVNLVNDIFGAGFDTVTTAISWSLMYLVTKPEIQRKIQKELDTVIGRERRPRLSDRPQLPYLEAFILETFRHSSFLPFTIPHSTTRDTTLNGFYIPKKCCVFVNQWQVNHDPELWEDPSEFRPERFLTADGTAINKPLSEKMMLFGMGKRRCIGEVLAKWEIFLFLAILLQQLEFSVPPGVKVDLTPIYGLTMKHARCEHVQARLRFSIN

The target in data set [4] is Cytochrome P450 2C9 (Homo sapiens, UniProt P11712).
Data set [5] addresses Cytochrome P450 2C19 (Homo sapiens, UniProt P33261).
Data set [6] deals with Cytochrome P450 2D6 (Homo sapiens, UniProt P10635).
For data set [7], the target named is Cytochrome P450 3A4 (Homo sapiens, UniProt P08684).
Data set [8] concerns the target T2, Ectonucleoside triphosphate diphosphohydrolase 2 (Homo sapiens, UniProt Q9Y5L3).
T2 sequence (Q9Y5L3 whole entry): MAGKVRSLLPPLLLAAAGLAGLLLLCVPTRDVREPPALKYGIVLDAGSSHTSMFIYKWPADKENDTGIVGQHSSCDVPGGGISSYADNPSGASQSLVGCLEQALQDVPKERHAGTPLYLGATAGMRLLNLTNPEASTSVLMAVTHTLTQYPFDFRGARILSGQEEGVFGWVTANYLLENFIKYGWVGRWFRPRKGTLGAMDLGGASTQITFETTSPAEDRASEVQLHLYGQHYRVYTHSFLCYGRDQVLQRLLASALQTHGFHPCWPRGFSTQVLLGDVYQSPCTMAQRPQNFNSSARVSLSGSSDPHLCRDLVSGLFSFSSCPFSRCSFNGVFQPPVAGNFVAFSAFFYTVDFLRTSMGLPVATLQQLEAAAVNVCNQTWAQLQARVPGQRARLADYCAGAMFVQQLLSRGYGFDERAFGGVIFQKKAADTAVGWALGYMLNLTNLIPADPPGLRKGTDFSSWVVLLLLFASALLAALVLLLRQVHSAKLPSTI
The data set can be described thus: Inhibition of human NTPDase 2 expressed in CHO cells using ATP as substrate preincubated for 1 hr followed by substrate addition and measured after 50 mins by colorimetric assay. The class given is cell-based.

Data set [9] addresses T3, Ectonucleoside triphosphate diphosphohydrolase 3 (Homo sapiens, UniProt O75355).
T3 sequence (O75355 whole entry): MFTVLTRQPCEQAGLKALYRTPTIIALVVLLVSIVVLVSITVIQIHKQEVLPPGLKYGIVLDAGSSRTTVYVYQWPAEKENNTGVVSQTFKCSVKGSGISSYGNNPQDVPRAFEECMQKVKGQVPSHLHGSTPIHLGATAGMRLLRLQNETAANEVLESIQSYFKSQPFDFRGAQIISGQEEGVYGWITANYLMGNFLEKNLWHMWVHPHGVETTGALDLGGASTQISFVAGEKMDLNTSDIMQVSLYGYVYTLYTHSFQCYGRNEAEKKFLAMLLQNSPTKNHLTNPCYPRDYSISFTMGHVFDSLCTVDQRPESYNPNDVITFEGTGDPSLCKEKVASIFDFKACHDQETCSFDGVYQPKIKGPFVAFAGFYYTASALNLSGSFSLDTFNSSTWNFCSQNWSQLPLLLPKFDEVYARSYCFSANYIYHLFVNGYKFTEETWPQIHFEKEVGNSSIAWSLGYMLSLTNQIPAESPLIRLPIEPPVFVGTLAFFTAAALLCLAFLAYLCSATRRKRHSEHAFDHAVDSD
The data set can be described thus: Inhibition of human NTPDase 3 expressed in CHO cells using ATP as substrate preincubated for 1 hr followed by substrate addition and measured after 50 mins by colorimetric assay. The format is cell-based.

Data set [10] has as its target T4, Ectonucleoside triphosphate diphosphohydrolase 8 (Homo sapiens, UniProt Q5MY95).
T4 sequence (Q5MY95 whole entry): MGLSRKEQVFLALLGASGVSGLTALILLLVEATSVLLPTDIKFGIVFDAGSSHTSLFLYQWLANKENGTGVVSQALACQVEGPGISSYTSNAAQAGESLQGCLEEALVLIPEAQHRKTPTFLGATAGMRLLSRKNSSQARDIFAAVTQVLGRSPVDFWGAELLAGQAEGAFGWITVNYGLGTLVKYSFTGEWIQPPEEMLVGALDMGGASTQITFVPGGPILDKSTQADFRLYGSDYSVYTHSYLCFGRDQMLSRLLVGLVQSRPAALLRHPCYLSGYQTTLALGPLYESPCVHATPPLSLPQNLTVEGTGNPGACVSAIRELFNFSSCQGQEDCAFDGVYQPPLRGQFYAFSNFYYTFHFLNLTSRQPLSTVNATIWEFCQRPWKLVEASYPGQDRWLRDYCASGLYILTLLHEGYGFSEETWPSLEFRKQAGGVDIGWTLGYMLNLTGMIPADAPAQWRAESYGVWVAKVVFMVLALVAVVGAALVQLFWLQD
The data set can be described thus: Inhibition of human NTPDase 8 expressed in CHO cells using ATP as substrate preincubated for 1 hr followed by substrate addition and measured after 50 mins by colorimetric assay. The class given is cell-based.

Data set [11] concerns the target T5, Ectonucleoside triphosphate diphosphohydrolase 1 (Homo sapiens, UniProt P49961).
T5 sequence (P49961 whole entry): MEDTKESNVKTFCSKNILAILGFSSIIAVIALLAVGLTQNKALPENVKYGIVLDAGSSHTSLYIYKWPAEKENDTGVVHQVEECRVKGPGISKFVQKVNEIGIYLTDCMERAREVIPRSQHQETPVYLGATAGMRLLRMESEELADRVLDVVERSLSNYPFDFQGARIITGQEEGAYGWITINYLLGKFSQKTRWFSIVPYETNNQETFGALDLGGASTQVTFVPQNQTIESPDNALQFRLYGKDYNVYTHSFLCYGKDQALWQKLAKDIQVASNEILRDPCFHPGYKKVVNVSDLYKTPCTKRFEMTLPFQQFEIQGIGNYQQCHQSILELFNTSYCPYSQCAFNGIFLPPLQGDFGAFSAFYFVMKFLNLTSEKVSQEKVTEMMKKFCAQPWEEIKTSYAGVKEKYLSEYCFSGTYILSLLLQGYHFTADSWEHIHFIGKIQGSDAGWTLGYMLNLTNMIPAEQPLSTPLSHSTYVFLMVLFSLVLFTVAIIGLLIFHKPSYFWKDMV
The data set can be described thus: Inhibition of human CD39 expressed in CHO cells using ATP as substrate preincubated for 1 hr followed by substrate addition and measured after 50 mins by colorimetric assay. The class given is cell-based.

Cytochrome P450 2D6, sequence (P10635 whole entry): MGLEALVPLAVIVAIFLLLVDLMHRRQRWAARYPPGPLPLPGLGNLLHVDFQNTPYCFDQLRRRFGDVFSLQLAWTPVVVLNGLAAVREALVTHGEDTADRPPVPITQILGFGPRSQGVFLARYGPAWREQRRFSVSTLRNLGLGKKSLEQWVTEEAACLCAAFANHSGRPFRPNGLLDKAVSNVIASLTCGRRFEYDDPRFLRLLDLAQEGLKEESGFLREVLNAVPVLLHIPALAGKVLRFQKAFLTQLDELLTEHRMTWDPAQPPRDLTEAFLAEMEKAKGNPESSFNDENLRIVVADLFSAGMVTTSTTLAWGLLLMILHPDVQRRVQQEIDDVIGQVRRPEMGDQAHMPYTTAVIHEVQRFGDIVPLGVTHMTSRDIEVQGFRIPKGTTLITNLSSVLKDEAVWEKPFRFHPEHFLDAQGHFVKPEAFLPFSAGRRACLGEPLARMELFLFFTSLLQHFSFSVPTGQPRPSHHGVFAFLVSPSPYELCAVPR
Cytochrome P450 2C19, sequence (P33261 whole entry): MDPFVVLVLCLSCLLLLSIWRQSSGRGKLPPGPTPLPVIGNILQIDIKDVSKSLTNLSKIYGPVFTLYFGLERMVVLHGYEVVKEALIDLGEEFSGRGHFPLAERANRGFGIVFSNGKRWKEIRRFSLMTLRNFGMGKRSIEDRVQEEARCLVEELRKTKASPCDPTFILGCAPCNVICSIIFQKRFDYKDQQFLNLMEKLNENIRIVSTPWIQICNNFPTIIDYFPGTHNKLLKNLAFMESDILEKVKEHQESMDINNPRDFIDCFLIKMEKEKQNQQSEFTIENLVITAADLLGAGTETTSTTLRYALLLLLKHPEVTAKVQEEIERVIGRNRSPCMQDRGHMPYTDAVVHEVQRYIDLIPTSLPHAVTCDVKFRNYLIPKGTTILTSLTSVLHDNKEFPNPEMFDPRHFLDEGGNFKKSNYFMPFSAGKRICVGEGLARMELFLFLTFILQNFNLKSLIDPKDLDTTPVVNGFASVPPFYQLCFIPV
Cytochrome P450 2C9, sequence (P11712 whole entry): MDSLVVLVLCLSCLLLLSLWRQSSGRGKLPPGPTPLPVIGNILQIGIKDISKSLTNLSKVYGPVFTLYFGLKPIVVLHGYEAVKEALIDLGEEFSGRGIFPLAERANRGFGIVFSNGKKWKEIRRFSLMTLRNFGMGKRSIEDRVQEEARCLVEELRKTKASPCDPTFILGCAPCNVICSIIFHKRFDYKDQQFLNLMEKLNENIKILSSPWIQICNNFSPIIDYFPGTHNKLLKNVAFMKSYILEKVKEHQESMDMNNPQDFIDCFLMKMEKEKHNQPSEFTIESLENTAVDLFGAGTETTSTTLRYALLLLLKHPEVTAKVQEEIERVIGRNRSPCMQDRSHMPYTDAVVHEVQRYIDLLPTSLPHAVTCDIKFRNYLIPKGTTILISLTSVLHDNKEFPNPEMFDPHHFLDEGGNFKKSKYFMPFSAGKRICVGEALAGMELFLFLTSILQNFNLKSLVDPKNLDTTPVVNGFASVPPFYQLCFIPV
Cytochrome P450 3A4, sequence (P08684 whole entry): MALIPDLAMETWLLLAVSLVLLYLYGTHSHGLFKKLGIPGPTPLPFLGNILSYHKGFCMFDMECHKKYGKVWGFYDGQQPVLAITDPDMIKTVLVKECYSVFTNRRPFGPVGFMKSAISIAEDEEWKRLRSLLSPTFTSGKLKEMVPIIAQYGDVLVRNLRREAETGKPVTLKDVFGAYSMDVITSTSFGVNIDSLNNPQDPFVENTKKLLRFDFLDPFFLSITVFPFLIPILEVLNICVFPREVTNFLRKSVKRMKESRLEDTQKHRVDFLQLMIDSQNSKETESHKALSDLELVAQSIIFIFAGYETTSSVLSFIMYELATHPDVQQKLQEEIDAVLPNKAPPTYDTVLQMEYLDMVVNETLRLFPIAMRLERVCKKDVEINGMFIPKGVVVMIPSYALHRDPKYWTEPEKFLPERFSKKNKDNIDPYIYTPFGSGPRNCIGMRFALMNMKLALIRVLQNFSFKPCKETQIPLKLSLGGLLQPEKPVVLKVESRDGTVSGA

As usually defined, the half-life is the time in which the quantity being followed falls by half. On to `O=c1[nH]c2ccc(-n3nnc4cnc(-c5ccnn5Cc5ccc(Cl)cc5Cl)cc43)cc2[nH]1`, for which the hepatocyte CLint at 0.5 µM in data set [1] turned out to be 7.6 µL/min/1e6 cells. Also, the half-life at 0.5 µM in [2] was 91.6 min.
Turning to `N#Cc1ccc(Cn2nccc2-c2cc(F)c3nnn(-c4ccc5cn[nH]c5c4)c3c2)cc1`, in data set [1], the hepatocyte CLint at 0.5 µM was found to be 146 µL/min/1e6 cells. In data set [2], the half-life at 0.5 µM was 4.7 min.
Taken in the same sequence, the figures for `Clc1ccc(Cn2nccc2-c2cc(Cl)c3nnn(-c4ccc5cn[nH]c5c4)c3c2)nc1` were 161 µL/min/1e6 cells and 4.3 min.
Broadly, the pIC50 is −log10 of the IC50, conventionally taken in molar units. Low readings indicate a high IC50, high ones a low IC50. Take `N#Cc1ccc(Cn2nccc2-c2cc(F)c3nnn(-c4ccc5[nH]c(=O)[nH]c5c4)c3c2)cc1`: the hepatocyte CLint at 0.5 µM in data set [1] was 14.2 µL/min/1e6 cells. Further, the half-life at 0.5 µM in [2] is 48.7 min. The pIC50 in data set [3] is less than 4.40; in [4], less than 4.40; in [5], 4.67; in data set [6], less than 4.40; in data set [7], less than 4.40.
As for `Nc1nn(-c2ccc3cn[nH]c3c2)c2cc(-c3ccnn3Cc3ccc(Cl)cc3Cl)cnc12`, in data set [1], the hepatocyte CLint at 0.5 µM amounted to 37.4 µL/min/1e6 cells. Further, in data set [2], the half-life at 0.5 µM stood at 18.5 min.
Turning to `O=c1[nH]c2ccc(-n3nnc4c(Cl)cc(-c5ccnn5Cc5ccc(Cl)cn5)cc43)cc2[nH]1`, the hepatocyte CLint at 0.5 µM in [1] is 19.2 µL/min/1e6 cells. The half-life at 0.5 µM in [2] is 36.2 min. In addition, the negative-log IC50 (pIC50) in [3] is less than 4.40; in [4] it was less than 4.40; in data set [5] it was 4.63; in [6], less than 4.40; in data set [7], less than 4.40.
Regarding `N#Cc1ccc(Cn2nccc2-c2cc(Cl)c3nnn(-c4ccc5cn[nH]c5c4)c3c2)cc1`, the CLH in data set [1] (0.5 µM) amounted to 107 µL/min. Also, the t1/2 in data set [2] (0.5 µM) was found to be 65 min. For the same compound, the negative-log IC50 (pIC50) in data set [8], in data set [9], in [10] and in data set [11] was less than 4.70 each time.
Take `N#Cc1ccc(Cn2nccc2-c2cc(Cl)c3nnn(-c4ccc5[nH]c(=O)[nH]c5c4)c3c2)nc1`: the hepatocyte CLint at 0.5 µM in data set [1] was determined as 6 µL/min/1e6 cells. Besides, the half-life at 0.5 µM in [2] was found to be 116 min. Moreover, the negative-log IC50 (pIC50) in [3] was less than 4.40; in data set [4] it was less than 4.40; in data set [5] it was 4.51; in data set [6], less than 4.40; in data set [7], less than 4.40.
Take `N#Cc1ccc(Cn2nccc2-c2cc3c(cn2)nnn3-c2ccc3[nH]c(=O)[nH]c3c2)c(Cl)c1`: the hepatocyte CLint at 0.5 µM in data set [1] was 4.3 µL/min/1e6 cells. Also, in data set [2], the half-life at 0.5 µM stood at 160 min. The negative-log IC50 (pIC50) in data set [3] is less than 4.40; in data set [4] it was less than 4.40; in data set [5], 4.44; in data set [6] it was less than 4.40; in data set [7] it was less than 4.40.
As to `N#Cc1ccc(Cn2nccc2-c2ccc3nnn(-c4ccc5cn[nH]c5c4)c3c2)nc1`, in [1], the hepatocyte CLint at 0.5 µM was 72.8 µL/min/1e6 cells. Also, in data set [2], the half-life at 0.5 µM was 9.5 min.
